Measured values: publication PMC7007950, “Farrerol Directly Targets GSK-3β to Activate Nrf2-ARE Pathway and Protect EA.hy926 Cells against Oxidative Stress-Induced Injuries” (Oxidative Medicine and Cellular Longevity, 2020)

Target: T1, glycogen synthase kinase 3β (GSK-3β) (Homo sapiens, UniProt P49841)
T1 construct: gene GSK3B; recombinant His-tagged GSK-3β
Assay: BLI on immobilized GSK-3β; also DARTS in lysate and Kinase-Glo inhibition (IC50 […])
Format: binding

T1 sequence (P49841 whole entry): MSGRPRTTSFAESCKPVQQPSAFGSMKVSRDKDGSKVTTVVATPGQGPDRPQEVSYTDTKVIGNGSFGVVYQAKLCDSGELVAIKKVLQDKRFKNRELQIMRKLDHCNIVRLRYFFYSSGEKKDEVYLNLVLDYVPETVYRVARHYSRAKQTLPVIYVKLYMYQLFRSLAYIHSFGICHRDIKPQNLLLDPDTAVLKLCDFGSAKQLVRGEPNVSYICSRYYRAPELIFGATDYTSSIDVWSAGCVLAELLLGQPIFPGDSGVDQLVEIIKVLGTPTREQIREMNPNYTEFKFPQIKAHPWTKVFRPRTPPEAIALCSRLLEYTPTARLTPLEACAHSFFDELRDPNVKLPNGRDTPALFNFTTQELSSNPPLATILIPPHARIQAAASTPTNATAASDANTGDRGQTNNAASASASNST

Molecule `Cc1c(O)c(C)c2c(c1O)C(=O)C[C@@H](c1ccc(O)cc1)O2` [farrerol] has a Kd of 634 µM.
